What was measured:
Assay type in all cases: in vivo
[1] = tested on: host (mouse) alpha smooth muscle actin (αSMact); assay: qPCR of explanted capsules, host fibrosis marker; settings: explanted at approximately 430 (amorphous) or 460 (crystalline) days post-transplant
Text: (§1) Total RNA was isolated from fibrosed spheres (with adhered tissue and immune overgrowth, if present), liquid nitrogen snap-frozen immediately following excision, using TRIzol (Invitrogen, Carlsbad, Calif.) according to the manufacturer's instructions. In addition, to help ensure complete tissue disruption, we also employed strong mechanical disruption with a Polytron homogenizer. Thus, gene expression signatures shown throughout are proportional and representative of the entire cell population present on and/or around retrieved materials. […] Mouse (5′-[…]-3′ (SEQ. ID. No.:1); reverse: 5′-CGGGTTCCGCTGTGTAAG-3′ (SEQ. ID. No.:2)) and rat (5′-CTCTCGTGCCATGTGAACC-3′ (SEQ. ID. No.:3); reverse: 5′-[…]-3′ (SEQ. ID. No.:4)) Pdx1 primers were designed using Primer Express software (Applied Biosystems, Carlsbad, Calif., USA) and evaluated using LaserGene software (DNAStar, Madison, Wis., USA) to ensure species rat (encapsulated islet) or mouse (host)-specificity, and normalized to mouse (5′-[…]-3′ (SEQ. ID. No.:5); reverse: 5′-[…]-3′ (SEQ. ID. No.:6)) and rat (5′-[…]-3′ (SEQ. ID. No.:7); reverse: 5′-[…]-3′ (SEQ. ID. No.:8)) Beta-actin, respectively. […] Results were analyzed using the comparative CT (ΔΔCT) method as described by the manufacturer. […]

rat Pdx1 = assay: qPCR of explanted capsules, rat islet function/viability marker; settings: explanted at approximately 430 (amorphous) or 460 (crystalline) days post-transplant
Text: as §1

C57BL/6 mice = assay: Naked (non-encapsulated) drug crystals injected IP with 500 μm alginate spheres, 2 weeks
Description: Naked crystals of GW2580 or saline-only (no drug control) were delivered intraperitoneally along with 500 μm alginate spheres for 2 weeks to C57BL/6 mice. […] Brightfield and fluorescence imaging was used to emphasize the respective presence or lack of fibrotic overgrowth on retrieved alginate spheres from either saline (control) or crystalline GW2580 treatment groups (FIG. 17C). […] GW2580 crystal testing (at doses of 0.5 and 5 mg/SC site) was also extended into the SC implant space with other immunogenic materials, ceramic glass (GL) and polymer polystyrene (PS). […] All animal protocols were approved by the MIT Committee on Animal Care, and all surgical procedures and post-operative care was supervised by MIT Division of Comparative Medicine veterinary staff. Immune-competent male non-diabetic or STZ-induced diabetic C57BL/6 mice (Jackson Laboratory, Bar Harbor, Me.) were anesthetized with 3% isoflurane in oxygen and had their abdomens shaved and sterilized using betadine and isopropanol. Preoperatively, all mice also received a 0.05 mg/kg dose of buprenorphine subcutaneously as a pre-surgical analgesic, along with 0.3 mL of 0.9% saline subcutaneously to prevent dehydration. A […] incision was made along the midline of the abdomen and the peritoneal lining was exposed using blunt dissection. The peritoneal wall was then grasped with forceps and a 0.5-1 mm incision was made along the linea alba. A desired volume of spheres (all materials without islets, as well as SLG20 spheres encapsulating rat islets) were then loaded into a sterile pipette and implanted into the peritoneal cavity through the incision. The incision was then closed using 5-0 taper-tipped polydioxanone (PDS II) absorbable sutures. The skin was then closed over the incision using a wound clip and tissue glue. At desired time points post-implantation or transplantation (with encapsulated islets), as specified in figures, mice were euthanized by CO2 administration, followed by cervical dislocation. In certain instances, 5 ml of ice cold PBS was first injected in order perform an intraperitoneal lavage to rinse out and collect free-floating intraperitoneal immune cells. An incision was then made using the forceps and scissors along the abdomen skin and peritoneal wall, and intraperitoneal lavage volumes were pipetted out into fresh 15 ml falcon tubes (each prepared with 5 ml of RPMI cell culture media). Next, a wash bottle tip was inserted into the abdominal cavity. KREBS buffer was then used to wash out all material spheres from the abdomen and into petri dishes for collection. After ensuring all the spheres were washed out or manually retrieved (if fibrosed directly to intraperitoneal tissues), they were transferred into 50 mL conical tubes for downstream processing and imaging. After intraperitoneal lavage and sphere retrieval, remaining fibrosed intraperitoneal tissues were also excised for downstream FACS and expression analyses. Single-cell suspensions of freshly excised tissues were prepared using a gentle MACS Dissociator (Miltenyi Biotec, Auburn, Calif.) according to the manufacturer's protocol. Single-cell suspensions were prepared in a passive PEB dissociation buffer (1×PBS, pH 7.2, 0.5% BSA, and 2 mM EDTA) and suspensions were passed through 70 μm filters (Cat. #22363548, Fisher Scientific, Pittsburgh, Pa.). This process removed the majority of cells adhered to the surface (>90%). […]

With COc1ccc(COc2ccc(Cc3cnc(N)nc3N)cc2OC)cc1 [GW2580, 5-[[3-Methoxy-4-[(4-methoxyphenyl)methoxy]phenyl]methyl]-2,4-pyrimidinediamine] the “lower αSMact expression, crystal versus amorphous capsules” value [1] was 74%, the “Pdx1 expression, crystal versus amorphous capsules” value (rat Pdx1) was “approximately 30 fold” and the “crystals in IP lavage liquid (differential interference contrast imaging)” value (C57BL/6 mice; 2 weeks after implantation, 1 week since last crystal injection) was “many crystals remained within the IP space”. For the same compound, the “fibrosis of retrieved alginate microspheres (phase contrast)” value (“fibrosis” for short) (C57BL/6 mice; daily amorphous drug, 3 mg/day, total 45 mg over 2 weeks) was “fibrosis-free”, the “macrophage levels on microspheres (FACS)” value (C57BL/6 mice; naked crystals, 2 weeks) was “significant reductions in macrophage levels” and the “fibrosis” value (C57BL/6 mice; naked drug crystals, 4.5 mg once per week, 9 mg total) was “fibrosis-free”. The “fibrosis” value (C57BL/6 mice; weekly amorphous drug) was “not effective”.
